The source of these data is patent US20100086929A1, “DETECTION OF ANALYTES” (DO-COOP TECHNOLOGIES LTD., priority 2007, published 2010).

Counter-ions that a name gives are not always drawn. Where no end group is shown, it is not given here.

Data set [1] is described as follows: Solubilization of peptides in Neowater (Example 9). It counts as physicochemical. Conditions: Neowater at 0.5 mM. On the procedure:
In addition, the effect of the peptides on Skov-3 cells was measured in order to ascertain whether the carrier composition comprising nanostructures influenced the cytotoxic activity of the peptides.
Solubilization: All seven peptides (Peptide X, X-5FU, NLS-E, Palm-PFPSYK (CMFU), […]-NH2, NLS-p2-LHRH, and F-LH-RH-palm kGFPSK) were dissolved in Neowater™ at 0.5 mM. Spectrophotometric measurements were taken.

Data set [2] in a line: Solubilization of retinol in Neowater, absorbance and filtration (Example 10). Type of data set: physicochemical. As to the method: Retinol (vitamin A) was purchased from Sigma (Fluka, 99% HPLC). Retinol was solubilized in Neowater™ under the following conditions. 1% retinol (0.01 gr in 1 ml) in EtOH and Neowater™ 0.5% retinol (0.005 gr in 1 ml) in EtOH and Neowater™ 0.5% retinol (0.125 gr in 25 ml) in EtOH and Neowater™ 0.25% retinol (0.0625 gr in 25 ml) in EtOH and Neowater™. […] Absorbance spectrum of retinol in EtOH: Retinol solutions were made in absolute EtOH, with different retinol concentrations, in order to create a calibration graph; absorbance spectrum was detected in a spectrophotometer. […] Actual concentration of retinol is also unknown since some oil drops are not dissolved in the water. […] The solutions were filtrated in […] filter.

Data set [3] can be described thus: Solubilizing CD-Dau, Daunorubicine and t-boc in Neowater (Example 7). Type of data set: physicochemical. On the procedure:
Required concentration: 3 mg/ml Neowater.
Properties: The material dissolves in EtOH.
5 different glass vials were prepared: • 1. 5 mg CD-Dau+1.2 ml Neowater™. • 2. 1.8 mg CD-Dau+600 μl acetone. • 3. 1.8 mg CD-Dau+150 μl acetone+450 μl Neowater™ (25% acetone). • 4. 1.8 mg CD-Dau+600 μl 10% *PEG (Polyethylene Glycol). • 5. 1.8 mg CD-Dau+600 μl acetone+600 μl Neowater™. • The samples were vortexed and spectrophotometer measurements were performed on vials #1, 4 and 5 • The vials were left opened in order to evaporate the acetone (vials #2, 3, and 5).
As soon as the acetone was evaporated from solutions #2, 4 and 5, the material sedimented slightly and an additional amount of acetone was added to the vials. This protocol enables the dissolving of the material in the presence of acetone and Neowater™ while at the same time enabling the subsequent evaporation of acetone from the solution (this procedure was performed twice). Following the second cycle the liquid phase was removed from the vile and additional amount of acetone was added to the sediment material. Once the sediment material dissolved it was merged with the liquid phase removed previously. The merged solution was evaporated again. […] Later 1.2 ml of 10% PEG+Neowater™ were added also and after some time the acetone was evaporated from the solution. Finalizing these procedures, the vials were merged to one vial (total volume of 3 ml). On top of this final volume 3 ml of acetone were added in order to dissolve the material and to receive a lucid liquefied solution, which was then evaporated again at 50° C. The solution didn't reach equilibrium due to the fact that once reaching such status the solution would have been separated. By avoiding equilibrium, the material hydration status was maintained and kept as liquid. After the solvent evaporated the material was transferred to a clean vial and was closed under vacuum conditions.
2 mg Daunorubicine+1 ml Neowater™ was prepared in one vial and 2 mg of Daunorubicine+1 ml RO was prepared in a second vial.
1.14 ml of EtOH was added to one glass vial containing 18.5 mg of t-boc (an oily material). This was then divided into two vials and 1.74 ml Neowater™ or RO water was added to the vials such that the solution comprised 25% EtOH. Following spectrophotometer measurements, the solvent was evaporated from the solution and Neowater™ was added to both vials to a final volume of 2.31 ml in each vial. The solutions in the two vials were merged to one clean vial and packaged for shipment under vacuum conditions.

For data set [4] the following is noted: cited from earlier work.
The nature of data set [5]: Solubilization of taxol in DMSO or Neowater with 17% EtOH (Example 13). It counts as physicochemical. On the procedure: The following experiments were performed in order to ascertain whether the carrier composition comprising nanostructures was capable of dissolving material taxol (Paclitaxel) at a final concentration of 0.5 mM.
Solubilization: 0.5 mM Taxol solution was prepared (0.0017 gr in 4 ml) in either DMSO or Neowater™ with 17% EtOH. Absorbance was detected with a spectrophotometer.

The nature of data set [6]: Taxol in Neowater by slow solvent exchange, HPLC after storage (Example 16). To be noted: taxol dispersed in Neowater, 6 month storage at −20° C. Type of data set: physicochemical. On the procedure: Solubilization: 0.5 mM Taxol solution was prepared (0.0017 gr in 4 ml). […] At the end of the procedure, less than 40% ethanol remained in the solution, leading to 0.08% of ethanol in the final administered concentration. The solution was sterilized using a 0.2 μm filter. Taxol was separately prepared in DMSO (0.5 mM). Both solutions were kept at −20° C. Absorbance was detected with a spectrophotometer.

Regarding Palm-PFPSYK (CMFU), the dissolving entry in data set [1] is “dissolved”.

Regarding `CC1=C(/C=C/C(C)=C/C=C/C(C)=C/CO)C(C)(C)CCC1` [Retinol], the “retinol concentration in EtOH with similar absorbance pattern” value is about 0.03125% in data set [2] (0.25% retinol in Neowater) and about 0.125% in data set [2] (0.5% retinol in Neowater). For the same compound, the “retinol in the solutions following filtration” value in data set [2] (0.25% retinol in Neowater, 1.5% EtOH, 0.44 and 0.2 filter) was “less than 0.03125%”.

As to F-LH-RH-palm kGFPSK, in data set [1], the dissolving entry is listed as “dissolved”.

`COc1cccc2c1C(=O)c1c(O)c3c(c(O)c1C2=O)C[C@@](O)(C(C)=O)C[C@@H]3O[C@H]1C[C@H](N)[C@H](O)[C@H](C)O1` [Daunorubicine, Cerubidine hydrochloride]: the dissolving result in data set [3] (2 mg in 1 ml Neowater) and in data set [3] (2 mg in 1 ml RO) was “dissolves without difficulty” each time. Besides, the solubility in water result in data set [4] was “known not to dissolve in water”.

For PFPSYKLRPG-NH2, the dissolving result in data set [1] is reported as “dissolved”.

With `CC(=O)O[C@H]1C(=O)[C@@]2(C)[C@H]([C@H](OC(=O)c3ccccc3)[C@]3(O)C[C@H](OC(=O)[C@H](O)[C@@H](NC(=O)c4ccccc4)c4ccccc4)C(C)=C1C3(C)C)[C@]1(OC(C)=O)CO[C@@H]1C[C@@H]2O` [Taxol, Paclitaxel], the dissolving result in data set [5] (0.5 mM in DMSO) and in data set [5] (0.5 mM in Neowater with 17% EtOH) was “dissolved” in each case. For the same compound, the “structural changes on storage (HPLC)” value in data set [6] is recorded as “no structural changes”.

Regarding Daidzein—daunomycin conjugate [CD-Dau], the dissolving result in data set [3] (Vial #1, 100% Neowater, 5 mg in 1.2 ml) is given as “sedimented after a few hours”; in data set [3] (Vial #2, 100% acetone, 1.8 mg in 600 μl), 48 hours later the material sedimented partially; in data set [3] (Vial #3, 25% acetone in Neowater), “didn't dissolve very well”; in data set [3] (Vial #4, 10% PEG+Neowater) it was “dissolved better than the CD-Dau in vial #1”; in data set [3] (Vial #5, acetone then Neowater, acetone evaporated), “as the acetone evaporated the material partially sediment to the bottom of the vial”. Further, the solubility in water entry in data set [4] is listed as “known not to dissolve in water”.
